Results on 1 compound are retold here after patent US20250018030A1, “PHARMACEUTICAL COMPOSITION FOR PROMOTING CANCER IMMUNOTHERAPY AND METHOD FOR PROMOTING CANCER IMMUNOTHERAPY” (China Medical University, priority 2023, published 2025).

The subject of experiment [1] is Tc1 cells. Put plainly: Intracellular cytokine staining / flow cytometry of genipin-treated skewed Tc1 cells. The experiment is classed as cell-based, Mouse. The settings on record: added to genipin-treated Tc1 cells; FIG. 2R-2S. As to the method: Mouse lymph nodes and spleens were harvested, and naïve CD4 or CD8 T cells isolated via magnetic bead separation (STEMCELL Technologies) and activated in α-CD3 (10 μg/ml) and α-CD28 (1 μg/ml) pre-coated 96-well plates. Skewing conditions were as follows: Th1 cells/Tc1 cells ([…] 10 μ/ml α-IL-4), Th2 cells/Tc2 cells (20 ng/ml IL-4 and 10 μ/ml α-IFN-γ), Th17 cells/Tc17 cells (20 ng/ml IL-6, 1.25 ng/ml […], 20 ng/ml IL-1β, 20 ng/ml IL-23, 10 μg/ml α-IFN-γ and 10 μg/ml α-IL-4), and Treg cells (5 ng/ml TGF-β, 10 μg/ml α-IFN-γ and 10 μg/ml α-IL-4) in the indicated medium. Cells were cultured for 4-5 days followed by treatment with genipin (3.125 μM, 6.25 μM, 12.5 μM) or DMSO for 12-16 hours.
Monoclonal antibodies were purchased from BD Biosciences or eBioscience. For intracellular cytokine staining (ICS), cells were first restimulated by PMA/ionomycin for 5 hours in the presence of GolgiStop (BD Biosciences), followed by surface epitope staining markers before being fixed/permeabilized (BD Cytofix/Cytoperm™) and stained with antibodies targeting intracellular antigens. Cells were finally fixed with 1.5% formaldehyde for 10 minutes at room temperature and analyzed on a FACSVerse flow cytometer (BD Bioscience). Data were analyzed using FlowJo software (Tree Star Inc.).
On the technique in general: Flow cytometry measures light scatter and fluorescence of single cells or particles in a stream.

Experiment [2] deals with Tc1 cells. Put plainly: Metabolic assays (Seahorse ECAR/OCR, mitochondrial pyruvate and acetyl CoA) in Tc1 cells. The settings on record: UK5099 40 μM added to genipin-treated Tc1 cells; FIG. 2G-2L. The class given is cell-based, Mouse. Here is the method: The real-time extracellular acidification rate (ECAR) and oxygen consumption rate (OCR) were measured using a Seahorse XF24 analyzer (Seahorse Bioscience), within XF Glycolysis Stress and XF Cell Mito Stress Test kits used to assess glycolysis and oxidative phosphorylation. 5×10^5 cells exposed to the indicated treatments were plated in an XF-24 microplate coated with Cell-Tak (Corning) one day before the assay. ECAR and OCR were measured after metabolic manipulations by the addition of oligomycin, carbonyl cyanide-p-trifluoromethoxy-phenylhydrazone (FCCP), 2-deoxyglucose (2-DG) and rotenone/anti-mycin A (R/A). Calculations were conducted with Agilent Seahorse Wave Software for Agilent Seahorse XF analyzers (Seahorse Bioscience). For isolation of mitochondria, Tc1 cells were frozen and thawed to weaken the membranes and resuspended in Reagent A of a mitochondria isolation kit (ab110170, Abcam), before being homogenized and centrifuged at 1,000×g for 10 minutes at 4° C. Supernatant was saved (SN #1) and the pellet resuspended in Reagent B. After homogenization and centrifugation, supernatant was saved (SN #2). SN #1 and SN #2 were mixed thoroughly and centrifuged at 12,000×g for 15 minutes at 4° C. The pellet was collected in Reagent C supplemented with protease inhibitors and was used for the pyruvate and acetyl COA assays. Briefly, the mitochondrial pyruvate and acetyl CoA levels in the Tc1 cells were assessed using a commercial Pyruvate Assay Kit (ab65342, Abcam) and PicoProbe Acetyl COA Assay Kit (ab87546, Abcam) according to the manufacturer's instructions.

`N#C/C(=C\c1cn(-c2ccccc2)c2ccccc12)C(=O)O` [UK5099]: the “T-bet expression in genipin-treated (UCP2-deprived) Tc1 cells, effect of added inhibitor” value in the experiment with Tc1 cells [1] is “blocked the positive regulation of T-bet”. Also, the “Genipin-driven Tc1 effects (mitochondrial acetyl CoA, mitochondrial pyruvate, histone H3 acetylation, H3K9 acetylation, OCR, IFN-γ), effect of added inhibitor” value in the experiment with Tc1 cells [2] is “could be reversed”.
